Laboratory results taken from publication PMC8958501, “Hypothesis-Driven, Structure-Based Design in Photopharmacology: The Case of eDHFR Inhibitors” (Journal of Medicinal Chemistry, 2022).
Like-named read-outs stand apart in the source and are kept apart here.

Key:
eDHFR = target: T1, eDHFR (Escherichia coli, UniProt P0ABQ4); experiment: biochemical; settings: for light-induced change in eDHFR inhibition (dark IC50 vs irradiated IC50): irradiation with λ1 = 365 nm;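 for all read-outs here: purified E. coli DHFR colorimetric assay, enzyme with NADPH 3 min then inhibitor (10^-12 to 10^-5 M) 7 min, rate ΔAbs/s relative to DMSO control (1% v/v), triplicates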
T1 construct: made in house; host or cells: E. cloni EXPRESS BL21 (DE3) cells (Lucigen), pT7-SC1 plasmid
Description: A 10 mM stock solution of the inhibitor in DMSO was divided into two parts. One half was thermally adapted with a heat gun for 1 min to obtain only the trans isomer.
The compounds were tested as eDHFR inhibitors via a colorimetric assay (Sigma-Aldrich, Catalog No. CS0340). Instead of the human DHFR protein provided in the kit, the in-house purified eDHFR was used. In a 3 mL cuvette, eDHFR (∼20 ng) was incubated with NADPH (60 μM, final) for 3 min, followed by an incubation with the inhibitor (from 10^–5 to 10^–12 M, final) for an additional 7 min. […] The concentration of DMSO in the final volume was 1% v/v for all enzymatic reactions. The measurements were performed in triplicates. For the control enzymatic reactions, eDHFR was incubated with NADPH and DMSO (1% v/v, final). […] The related control enzymatic reaction was also performed under continuous irradiation with λ1 = 390 nm light. Linear regression was performed in Microsoft Excel to calculate ΔAbs/s. % eDHFR activity was calculated as the ratio between ΔAbs/s for the sample and ΔAbs/s for the control reaction. GraphPadPrism 5.0 (GraphPad Software, Inc., version 5.00) was used for the determination of the IC50 of each inhibitor. Nonlinear regression was used for data fitting.

E. coli CS1562 = experiment: Antibacterial activity assay (MIC, bacterial growth curves); assay type: cell-based, Escherichia coli; settings: for MIC: Escherichia coli; for light-induced difference in antibacterial activity (dark MIC vs irradiated MIC): irradiation with λ1 = 365 nm; for light-induced difference in antibacterial activity (dark MIC vs irradiated MIC) / MIC / bacterial growth inhibition, same in both forms: E. coli CS1562; for MIC / bacterial growth inhibition, same in both forms: both before and after irradiation with λ1 = 365 nm
Description: A culture of E. coli CS1562 was grown overnight in LB medium (10 g/L tryptone, 5 g/L yeast extract, 5 g/L NaCl) containing tetracycline (10 μg/mL) at 37 °C. The OD600 was measured, and the culture was diluted to 0.002 OD600 in LB medium. Series dilutions of the compounds were prepared in DMSO and diluted 25 times in sterile LB medium in a black sterile Eppendorf tube. […] Subsequently, the dark samples were added to the 96-well plate (100 μL, triplicates). Lastly, the LB medium containing E. coli CS1562 at 0.002 OD was added to every well (100 μL). The cells were grown overnight at 37 °C in a plate reader (Synergy H1, Biotek), and the OD600 was measured every 10 min with a 10 s shaking step before each measurement. The OD600 curves were background-corrected by subtracting the value at t = 0. […] Detailed data are reported in the SI.

[1] = Thermal cis-to-trans isomerization (thermal half-life of the metastable cis isomer); assay type: physicochemical; settings: thermal cis-to-trans isomerization, DMSO, 25 °C, 20 µM
Description: UV–vis absorption spectra were recorded on an Agilent 8453 UV–vis Spectrophotometer. Photochemical isomerization (photoswitching) was achieved by irradiation from the side in a fluorescence quartz cuvette (width = 1.0 cm) using a custom-built (Prizmatix/Mountain Photonics) multiwavelength fiber coupled LED system (FC6-LED-WL) including the following LEDs: 365A, 390B, 420Z, 445B, 535R, 630CA. A detailed description of the setup was published by us recently.[84] Alternatively, the samples were irradiated at 340 nm using the LOT Quantum design setup with 300 W Xe-Arc lamp, using the Thorlabs FB340-10 Bandpass filter. A Quantum Northwest TC1 temperature controller was used to maintain the temperature at 25 °C during photochemical studies. To analyze the fatigue resistance of the compounds, repeated irradiation cycles were performed using alternating wavelengths. The decrease and increase of the π–π* transition band was followed by UV–vis spectroscopy (Agilent 8453) at 25 °C while stirring. To determine the thermal lifetime for the metastable cis isomer, samples were irradiated with the custom-built setup until photostationary state (PSS) was reached. Then, the cuvettes were placed in a JASCO V750 spectrophotometer with a PTC 424S/15 temperature controller, and the recovery of the π–π* transition was followed while stirring at 25 °C (for solutions in DMSO and eDHFR assay buffer) or 37 °C (for solutions in 10 mM Tris-HCl buffer pH 7.0). The data were fitted using a first-order exponential function in OriginPro 2018. For the PSD determination by ^1H NMR spectroscopy, 0.5 mL of a 2 mM solution of the respective compound in DMSO-d6 was thermally equilibrated by briefly (∼10 s) heating the sample with a heat gun. Subsequently, the sample was irradiated in a glass NMR tube with a 365 nm hand-held lamp (Spectroline ENB-280C) or the LEDs of the custom-built setup. Detailed data are reported in the SI.

[2] = after irradiation, read-out: DHFR inhibition IC50 (nM) after irradiation
[3] = before irradiation, read-out: DHFR inhibition IC50 (nM) before irradiation
[4] = light or radiation study, after irradiation with λ1 = 365 nm, E. coli CS1562, 24 h, read-out: MIC Light
[5] = light or radiation study, after irradiation, E. coli CS1562, 24 h, read-out: MIC (µM) after irradiation
[6] = light or radiation study, before irradiation, E. coli CS1562, 24 h, read-out: MIC (µM) before irradiation
[7] = dark, E. coli CS1562, 24 h, read-out: MIC Dark
[8] = IC50 Dark, dark-adapted (thermally adapted, trans isomer)
[9] = irradiated with λ1 (1: continuous irradiation at 390 nm), read-out: IC50 Light
[10] = no considerable activity up to, dark-adapted and irradiated states
[11] = DHFR inhibition IC50 (nM) before irradiation, before irradiation
[12] = irradiated to PSS with λ1 (340 nm for 3, 365 nm for 6-15), read-out: IC50 Light

T1 sequence (P0ABQ4 whole entry): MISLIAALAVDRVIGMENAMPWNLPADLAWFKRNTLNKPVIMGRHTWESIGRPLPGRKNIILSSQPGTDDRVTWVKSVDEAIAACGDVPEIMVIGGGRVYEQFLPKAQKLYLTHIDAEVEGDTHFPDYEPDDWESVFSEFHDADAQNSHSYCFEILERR

Row | SMILES | IC50 (eDHFR; [2]) [nM] | IC50 (eDHFR; [3]) [nM] | light-induced change in eDHFR inhibition (dark IC50 vs irradiated IC50) (eDHFR) | MIC (E. coli CS1562; [4]) [µM] | MIC (E. coli CS1562; [5]) [µM] | MIC (E. coli CS1562; [6]) [µM] | MIC (E. coli CS1562; [7]) [µM] | t1/2 DMSO (25 °C) [1] [h] | melting point | IC50 (eDHFR; fragment, no irradiation, read-out: IC50) [nM] | IC50 (eDHFR; [8]) [nM] | IC50 (eDHFR; [9]) [nM] | IC50 (eDHFR; [10]) [nM] | light-induced difference in antibacterial activity (dark MIC vs irradiated MIC) (E. coli CS1562) | IC50 (eDHFR; [11]) [nM] | IC50 (eDHFR; [12]) [nM] | MIC / bacterial growth inhibition, same in both forms (E. coli CS1562) [µM] | MIC (E. coli CS1562; CS1562, light or radiation study, 24 h) [µM] | MIC (E. coli CS1562; CS1562, light or radiation study, 24 h, read-out: MIC (µM) before irradiation) [µM]
1 | COc1cc(Cc2cnc(N)nc2N)cc(OC)c1OCc1cc(F)c(/N=N/c2c(F)cccc2F)c(F)c1 [TFAT, tetra-ortho-fluoroazobenzene trimethoprim, reference compound] | 1.7 ± 0.32 | 1.9 ± 0.61 |  |  |  |  |  |  |  |  |  |  |  |  |  |  |  |  | 
2 | COC(C)(C#Cc1cnc(N)nc1N)c1ccc(/N=N/c2ccc(Cl)c(C(=O)O)c2)cc1 (stereo not drawn) [Compound 13, (E)-2-Chloro-5-{[4-(4-(2,4-diaminopyrimidin-5-yl)-2-methoxybut-3-yn-2-yl)phenyl]diazenyl}benzoic acid] | 29 ± 8.6 | 28 ± 4.8 | no difference in activity | 80 | 80 | 40 | 40 | > 24 | 212 °C (dec.) |  |  |  |  |  |  |  |  |  | 
3 | Nc1ccnc(N)n1 [2,4-diaminopyrimidine, reference compound] |  |  |  |  |  |  |  |  |  | 390000 ± 150000 |  |  |  |  |  |  |  |  | 
4 | COC(C)(C#Cc1cnc(N)nc1N)c1ccc(/N=N/c2ccc(C)c(C(=O)O)c2)cc1 (stereo not drawn) [Compound 12, (E)-5-{[4-(4-(2,4-Diaminopyrimidin-5-yl)-2-methoxybut-3-yn-2-yl)phenyl]diazenyl}-2-methylbenzoic acid] | 71 ± 18 | 13 ± 2.8 | 5 fold | 20 | 20 | 20 | 20 | > 24 | 221 °C (dec.) |  |  |  |  |  |  |  |  |  | 
5 | Nc1ncc(C#Cc2ccc(/N=N/c3ccccc3)cc2)c(N)n1 [Compound 4, (E)-5-{[4-(Phenyldiazenyl)phenyl]ethynyl}pyrimidine-2,4-diamine] | > 10000 | > 10000 |  |  |  |  |  | 8.6 |  |  | > 10000 | > 10000 | > 10000 |  |  |  |  |  | 
6 | COC(C)(C#Cc1cnc(N)nc1N)c1ccc(/N=N/c2c(C)nn(C)c2C)cc1 (stereo not drawn) [Compound 9, (E)-5-(3-Methoxy-3-(4-((1,3,5-trimethyl-1H-pyrazol-4-yl)diazenyl)phenyl)but-1-yn-1-yl)pyrimidine-2,4-diamine] | 640 ± 510 | 220 ± 60 |  | 80 | 80 | 80 | 80 | > 24 | 162 to 164 °C |  |  |  |  | did not display any light-dependent potency difference |  |  |  |  | 
7 | Nc1ncc(C#Cc2cccc(/N=N/c3ccccc3)c2)c(N)n1 [Compound 5, (E)-5-{[3-(Phenyldiazenyl)phenyl]ethynyl}pyrimidine-2,4-diamine] |  |  |  |  |  |  |  | > 24 | 207 to 209 °C |  | 5300 | 2600 |  |  |  |  |  |  | 
8 | COc1ccc(/N=N/c2ccc(C(C)(C#Cc3cnc(N)nc3N)OC)cc2)cc1 (stereo not drawn) [Compound 8, (E)-5-{3-Methoxy-3-[4-((4-methoxyphenyl)diazenyl]phenyl}but-1-yn-1-yl)pyrimidine-2,4-diamine] | 200 ± 77 |  |  | > 80 | > 80 | > 80 | > 80 | > 24 | 186 to 189 °C |  | 330 ± 190 | 200 |  |  | 330 ± 190 | 200 ± 77 | > 80 |  | 
9 | COC(C)(C#Cc1cnc(N)nc1N)c1ccc(/N=N/c2ccc(C(=O)O)cc2)cc1 (stereo not drawn) [Compound 11, (E)-4-{[4-(4-(2,4-Diaminopyrimidin-5-yl)-2-methoxybut-3-yn-2-yl)phenyl]diazenyl}benzoic acid] | 70 ± 39 |  | not significant | 40 | 40 | 40 | 40 | > 24 | 248 °C (dec.) |  | 58 ± 13 |  |  |  | 58 ± 13 | 70 ± 39 | 40 |  | 
10 | COC(C)(C#Cc1cnc(N)nc1N)c1ccc(/N=N/c2ccc(C(=O)O)c(Cl)c2)cc1 (stereo not drawn) [Compound 15, (E)-2-Chloro-4-{[4-(4-(2,4-diaminopyrimidin-5-yl)-2-methoxybut-3-yn-2-yl)phenyl]diazenyl}benzoic acid] | 27 ± 3.7 |  | 2 fold | 20 | 20 | 40 | 40 | > 24 | 245 °C (dec.) |  | 52 ± 11 |  |  | 2 fold | 52 ± 11 | 27 ± 3.7 |  |  | 
11 | COC(C)(C#Cc1cnc(N)nc1N)c1ccc(/N=N/c2cccc(C(=O)O)c2)cc1 (stereo not drawn) [Compound 10, (E)-3-{[4-(4-(2,4-Diaminopyrimidin-5-yl)-2-methoxybut-3-yn-2-yl)phenyl]diazenyl}benzoic acid] |  |  |  | 20 | 20 | 20 | 20 | > 24 | 190 °C (dec.) |  | 24 |  |  |  |  | 57 | 20 |  | 
12 | COc1ccc(/N=N/c2ccc(COc3c(OC)cc(Cc4cnc(N)nc4N)cc3OC)cc2)cc1 [PMAT, para-methoxyazobenzene trimethoprim, reference compound] |  |  |  |  |  |  |  |  |  |  | 2 ± 0.61 |  |  |  |  | 2.5 ± 0.61 |  |  | 
13 | COc1cc(Cc2cnc(N)nc2N)cc(OC)c1OCc1cc(Cl)c(/N=N/c2c(Cl)cccc2Cl)c(Cl)c1 [TCAT, tetra-ortho-chloroazobenzene trimethoprim, reference compound] | 3.3 ± 2.1 | 3.8 ± 1.4 |  |  |  |  |  |  |  |  |  |  |  |  |  |  |  |  | 
14 | Nc1ncc(-c2ccc(/N=N/c3ccccc3)cc2)c(N)n1 [Compound 2, (E)-5-[4-(Phenyldiazenyl)phenyl]pyrimidine-2,4-diamine] | > 10000 | > 10000 |  |  |  |  |  | 27 | 199 to 201 °C |  | > 10000 | > 10000 | > 10000 |  |  |  |  |  | 
15 | COc1cc(Cc2cnc(N)nc2N)cc(OC)c1OC [TMP, trimethoprim, reference compound] |  |  |  |  |  |  |  |  |  |  |  |  |  |  |  |  |  | 1.3 | 1.3
16 | COC(C)(C#Cc1cnc(N)nc1N)c1ccc(/N=N/c2ccc(C(=O)O)c(C)c2)cc1 (stereo not drawn) [Compound 14, (E)-4-{[4-(4-(2,4-Diaminopyrimidin-5-yl)-2-methoxybut-3-yn-2-yl)phenyl]diazenyl}-2-methylbenzoic acid] | 37 ± 14 | 77 ± 26 | 2 fold | 40 | 40 | 20 | 20 | > 24 | 240 °C (dec.) |  |  |  |  |  |  |  |  |  | 
17 | Nc1ncc(/N=N/c2ccccc2)c(N)n1 [Compound 1, (E)-5-(Phenyldiazenyl)pyrimidine-2,4-diamine] | > 10000 | > 10000 |  |  |  |  |  | 1.3 | > 250 °C |  | > 10000 | > 10000 | > 10000 |  |  |  |  |  | 
